Data set [1] relates to Diabetic Peripheral Neuropathy in a Mouse Induced by Streptozotocin. As to the kind of experiment: Cold plate test (4° C.), diabetic peripheral neuropathy induced by streptozotocin. Format: in vivo, C57BL/6J mice. The conditions noted are these: group receiving streptozotocin only (200 mg/kg, Day 0 only), vs control group. The method, then:
(§1) Six to seven-week-old male C57BL/6J mice were used for the tests as with Example 7. All the mice were acclimated for seven days after arrival. Then, the mice were grouped into the following four groups: a control group, a group receiving streptozotocin, a group receiving 1 mg/kg xylitol, and a group receiving streptozotocin+1 mg/kg xylitol. Each group consisted of nine mice.
(§2) The mice in the group receiving 1 mg/kg xylitol were orally administered with xylitol at a dose of 1 mg/kg daily from Day 0. The mice in the group receiving streptozotocin+1 mg/kg xylitol were orally administered with xylitol at a dose of 1 mg/kg daily from Day 21 of administration.
A cold plate test was performed to examine the effect due to xylitol on paresthesia that is caused by a low temperature stimulus. The mice in the four groups described in (1) of the present example (Example 8) were placed on a cold plate set at 4° C., and withdrawal response time (latent time) was measured. It is presumed that a shorter withdrawal response time (latent time) reflects a greater degree of shunning the low temperature stimulus by the cold plate. […]
(§3) On Day 8 of acclimation, the mice in the group receiving streptozotocin and the group receiving streptozotocin+5 mg/kg D-threitol were administered with streptozotocin at a dose of 200 mg/kg. A massive dose of streptozotocin destroys pancreatic cells in the mice. As a result, insulin is no longer secreted, and thus, diabetes can be developed in the mice. This day was designated as the first day of the administration (Day 0). Note that streptozotocin was administered only on the first day of administration.
(§4) The mice in the group receiving 5 mg/kg D-threitol and the group receiving streptozotocin+5 mg/kg D-threitol were orally administered with D-threitol at a dose of 5 mg/kg daily from Day 0. […]
The mice in the group receiving 5 mg/kg D-threitol were orally administered with D-threitol at a dose of 5 mg/kg daily from Day 0. The mice in the group receiving streptozotocin+5 mg/kg D-threitol were orally administered with D-threitol at a dose of 5 mg/kg daily from Day 21 of administration.
A cold plate test was performed to examine the effect of D-threitol on paresthesia that is caused by a low temperature stimulus. The mice in the four groups described in (1) of the present example (Example 10) were placed on a cold plate set at 4° C., and withdrawal response time (latent time) was measured. […]
A cold plate test was performed to examine the effect of L-talitol on paresthesia that is caused by a low temperature stimulus. The mice in the four groups described in (1) of the present example (Example 11) were placed on a cold plate set at 4° C., and withdrawal response time (latent time) was measured. […]

Data set [2] shares this test system. The experiment in a line: Von Frey test (0.16 g filament), diabetic peripheral neuropathy induced by streptozotocin. The conditions noted are these: group receiving streptozotocin only (200 mg/kg, Day 0 only), vs control group. Format: in vivo, C57BL/6J mice. As to the method:
On Day 8 of acclimation, the mice in the group receiving streptozotocin and the group receiving streptozotocin+1 mg/kg xylitol were administered with streptozotocin at a dose of 200 mg/kg. A massive dose of streptozotocin destroys pancreatic cells in the mice. As a result, insulin is no longer secreted, and thus, diabetes can be developed in the mice. This day was designated as the first day of the administration (Day 0). Note that streptozotocin was administered only on the first day of administration. […]
as §1, §2
The mice in the four groups described in (1) of the present example (Example 8) were placed in a cage, and the avoidance response frequency (score) was measured by pressing a filament with a bending force of 0.16 g against the back of the hind paw. […]
as §3, §4
The mice in the group receiving 5 mg/kg D-threitol were orally administered with D-threitol at a dose of 5 mg/kg daily from Day 0. […]
The mice in the four groups described in (1) of the present example (Example 10) were placed in a cage, and the avoidance response frequency (score) was measured by pressing a filament with a bending force of 0.16 g against the back of the hind paw. […]
The mice in the four groups described in (1) of the present example (Example 11) were placed in a cage, and the avoidance response frequency (score) was measured by pressing a filament with a bending force of 0.16 g against the back of the hind paw. […]

Data set [3] deals with Peripheral Neuropathy in a Mouse Caused by Oxaliplatin. As to the kind of experiment: Cold plate test (10° C.), peripheral neuropathy caused by oxaliplatin. The class given is in vivo, Balb/c mice. Conditions: group receiving 6 mg/kg oxaliplatin only (i.p. Day 0, 7, 14), vs control group. As to the method: The preventive action of xylitol on hyperesthesia that occurs when an anticancer drug, oxaliplatin, was administered was examined. […] Xylitol was orally administered to a mouse simultaneously with the administration of oxaliplatin, and the following tests (cold plate test and von Frey test) were performed. Oxaliplatin is an anticancer drug classified as a platinum-containing drug. In all of the examples described below, a dosage (administered amount) (mg/kg) refers to the weight of the administered substance per kg body weight of the mouse.
Six to seven-week-old female Balb/c mice were used for the tests. All the mice were acclimated for seven days after arrival. Then, the mice were grouped into the following four groups: a control group, a group receiving oxaliplatin, and two groups receiving oxaliplatin and two different doses of xylitol (groups receiving oxaliplatin+xylitol). Each group consisted of nine mice.
On Day 8 of acclimation, the mice in the group receiving oxaliplatin and the groups receiving oxaliplatin+xylitol were intraperitoneally administered with oxaliplatin at a dose of 6 mg/kg. This day was designated as Day 0 of administration. Thereafter, these mice were intraperitoneally administered with oxaliplatin at a daily dose of 6 mg/kg on Day 7 and Day 14.
The mice in a first group receiving oxaliplatin and xylitol were orally administered with xylitol at a dose of 1 mg/kg daily from Day 0. The mice in a second group receiving oxaliplatin and xylitol were orally administered with xylitol at a dose of 5 mg/kg daily from Day 0.
A cold plate test was performed to examine the effect of xylitol on paresthesia that is caused by a low temperature stimulus. The mice in the four groups described in (1) of the present example (Example 1) were placed on a cold plate set at 10° C., and withdrawal response time (latent time) was measured. It is presumed that a shorter latent time reflects a greater degree of shunning the low temperature stimulus by the cold plate.
Six to seven-week-old female Balb/c mice were used for the tests as with Example 1. All the mice were acclimated for seven days after arrival. Then, the mice were grouped into the following five groups: a control group, a group receiving only oxaliplatin, and three groups receiving oxaliplatin and three different doses of xylitol. Each group consisted of seven mice.
On Day 8 of acclimation, the mice in the groups other than the control group were intraperitoneally administered with oxaliplatin at a dose of 6 mg/kg. This day was designated as the first day of the administration (Day 0). Thereafter, these mice were intraperitoneally administered with oxaliplatin at the same dose on Day 7 and Day 14 for a total of 3 doses.
The mice in a first group receiving oxaliplatin+xylitol were orally administered with xylitol at a dose of 5 mg/kg daily from Day 6 of administration. The mice in a second group receiving oxaliplatin+xylitol were orally administered with xylitol at a dose of 25 mg/kg daily from Day 6 of administration. The mice in a third group receiving oxaliplatin+xylitol were orally administered with xylitol at a dose of 100 mg/kg daily from Day 6 of administration. In this context, “Day 6 of administration” means that the number of days after administration is 6. The same applies hereinafter.
A test was performed on the mice in the five groups described in (1) of the present example (Example 2) to examine the effect of xylitol on paresthesia that is caused by a low temperature stimulus. The mice in respective groups were placed on a cold plate set at 10° C., and withdrawal response time (latent time) was measured. It is presumed that a shorter latent time reflects a greater degree of shunning the low temperature stimulus by the cold plate.
Six to seven-week-old female Balb/c mice were used for the tests as with Example 1. All the mice were acclimated for seven days after arrival. […]

For data set [4] the test system is unchanged. The experiment in a line: Von Frey test (0.16 g filament), peripheral neuropathy caused by oxaliplatin. The class given is in vivo, Balb/c mice. The conditions noted are these: group receiving 6 mg/kg oxaliplatin only (i.p. Day 0, 7, 14), vs control group. The text has this:
Six to seven-week-old female Balb/c mice were used for the tests as with Example 1. All the mice were acclimated for seven days after arrival. Then, the mice were grouped into the following four groups: a control group, a group receiving oxaliplatin, a group receiving D-threitol, and a group receiving oxaliplatin and D-threitol (a group receiving oxaliplatin+D-threitol). Each group consisted of five mice.
On Day 8 of acclimation, the mice in the group receiving oxaliplatin and the group receiving oxaliplatin+D-threitol were intraperitoneally administered with oxaliplatin at a dose of 6 mg/kg. This day was designated as the first day of the administration (Day 0). Thereafter, these mice were intraperitoneally administered with oxaliplatin at a daily dose of 6 mg/kg on Day 7 and Day 14.
The mice in the group receiving D-threitol and the group receiving oxaliplatin+D-threitol were orally administered with D-threitol at a dose of 5 mg/kg daily from Day 0.
The mice in the four groups described in (1) of the present example (Example 3) were placed in a cage, and the avoidance response frequency (score) was measured by pressing a filament with a bending force of 0.16 g against the back of the hind paw.
On Day 8 of acclimation, the mice in the group receiving oxaliplatin and the group receiving oxaliplatin+D-threitol were intraperitoneally administered with oxaliplatin at a dose of 6 mg/kg. This day was designated as the first day of the administration (Day 0). Thereafter, these mice were intraperitoneally administered with oxaliplatin at the same dose on Day 7 and Day 14 for a total of 3 doses.
The mice in the group receiving 100 mg/kg D-threitol were orally administered with D-threitol at a dose of 100 mg/kg daily from Day 0. The mice in the group receiving oxaliplatin+100 mg/kg D-threitol were orally administered with D-threitol at a dose of 100 mg/kg daily from Day 6 of administration.
For the mice in the four groups described in (1) of the present example (Example 4), the avoidance response frequency (score) was measured by pressing a filament with a bending force of 0.16 g against the back of the hind paw.
Six to seven-week-old female Balb/c mice were used for the tests as with Example 1. All the mice were acclimated for seven days after arrival. Then, the mice were grouped into the following four groups: a control group, a group receiving oxaliplatin, a group receiving L-talitol, and a group receiving oxaliplatin and L-talitol (a group receiving oxaliplatin+L-talitol). Each group consisted of five mice. […]
The mice in the four groups described in (1) of the present example (Example 5) were placed in a cage, and the avoidance response frequency (score) was measured by pressing a filament with a bending force of 0.16 g against the back of the hind paw. […]

Entries after “also recorded” stand apart in the source; their conditions may differ.

`CN(N=O)C(=O)N[C@H]1C(O)O[C@H](CO)[C@@H](O)[C@@H]1O` (mixture of isomers) [streptozotocin, reference compound]: the “withdrawal response time (latent time)” value in data set [1] is on record as “reduced from Day 7”. Also, the avoidance response score result in data set [2] is “increased from Day 7”.
With `O=C1[O][Pt]2([NH][C@@H]3CCCC[C@H]3[NH]2)[O]C1=O` [oxaliplatin, reference compound], the “withdrawal response time (latent time)” value in data set [3] is given as “reduced from Day 3 to Day 6 of the test; also recorded: uniform reduction in the withdrawal response time”. Further, in data set [4], the avoidance response score result is given as “remarkable increase in the avoidance response score”.

Values taken from patent US20240099989A1, “AGENT FOR PREVENTING OR IMPROVING PERIPHERAL NEUROPATHY” (KINKI UNIVERSITY, priority 2021, published 2024).
